In assay [1] the target is Carbonic anhydrase 2 (Homo sapiens, UniProt P00918). Description: Inhibitory constant value for Carbonic anhydrase II in human determined in pH-shift assay.
Assay [2] in a line: Inhibition concentration for carbonic anhydrase I and carbonic anhydrase II in rat determined in CO2 hydration assay.

We go through 2 molecules from ChEMBL document CHEMBL1142729 (J Med Chem, 2005).

For `NS(=O)(=O)OCC1Oc2ccccc2O1`, in assay [1], the IC50 stood at 0.28 µM.

`CC1(C)O[C@@H]2[C@@H](CO[C@@]3(COS(N)(=O)=O)OC(C)(C)O[C@@H]23)O1` [TOPIRAMATE] showed an IC50 in assay [2] of 8.9 µM.

In general, IC50 refers to the point on the concentration scale where inhibition reaches its midpoint.
